System: IL-1β release from a mouse microglial cell line
Test: Interleukin-1β microglial cell assay (LPS / IFN gamma)
Assay type: cell-based
Details: LPS (10 μg/ml) and IFN gamma (10 ng/ml), 24 hours, read-out: EC50, inhibition of IL-1 beta induction
Description: This assay measures the release of IL-1β from a mouse microglial cell line following an inflammatory challenge with LPS and interferon-gamma. The ability of test articles to inhibit microglial cell activation and IL-1β release is determined by co-incubation of the test article with the inflammatory challenge.
Mouse microglial cells were seeded in poly-D-lysine coated 96-well plates at a density of 10,000 cells/well and allowed to attach for 24 hours. Cells were stimulated by addition of LPS (10 μg/ml) and IFN gamma (10 ng/ml) in the presence or absence of test article. The cells were then incubated for 24 hours at 37° C., after which time the media was removed and used for cytokine determination as described below.
Viability of mouse microglial cells after exposure to the test article was determined using a fluorescent viability dye, Cell Tracker Green. Cell Tracker Green was used at a working concentration of 5 μM in 1×HBSS. Cells were washed once with HBSS (200 μl/well) and 100 μl Cell Tracker Green was added to each well. Cells were then incubated at 37° C. for 30 minutes, after which time the Cell Tracker was removed and the cells were washed once with HBSS (200 μl/well). 100 pl fresh HBSS was added to each well and the plate was read on a Fluoroskan plate reader using an excitation wavelength of 485 nm and an emission wavelength of 538 nm.
1. […]
• The Costar EIA Hi-binding plate was coated with capture antibody at 4 μg/ml. […] Each well was filled to the top, dispensed, and any remaining buffer was removed by inverting the plate and gently blotting against clean paper towels. • Non-specific binding sites were blocked by adding 300 μl of Blocking Buffer to each well, and after sealing incubating for at least 1 hour at room temperature. • After washing the plate was now ready for the samples. […] 100 μl of this Substrate Solution mixture was added to each well and the plate was incubated in the dark for 20 minutes at room temperature. • 50 μl of Stop Solution was added to each well, mixing was ensured by gently tapping. • Each plate was read with the Spectramax once at 450 nm. […]

EC50	Compound
≤ 20 µM	Cc1c(O)cc2c(c1C)OC(C)(CC/C=C1\SC(=O)NC1=O)CC2 (centres unmarked) [5-[3-(6-Hydroxy-2,7,8-trimethyl-chroman-2-yl)-propylidene]-thiazolidine-2,4-dione]
≤ 20 µM	CC1=NN(c2ccccc2)C(=O)C1C(CCC1(C)CCc2cc(O)c(C)c(C)c2O1)C1C(=O)N(c2ccccc2)N=C1C (centres unmarked) [1-(6-Hydroxy-2,7,8-trimethyl-chroman-2-yl)-3-bis-(5-methyl-2-phenyl-2,4-dihydro-pyrazol-3-one-4-yl)-propane]

Source: US8791155B2, “Chroman derivatives” (Edison Pharmaceuticals, Inc., priority 2003, dated 2014)
